Tests used:
[1] = test system: HCT-116 cells; experiment: Cell-cycle analysis, propidium iodide staining and flow cytometry; assay type: cell-based
Protocol: The turnover of many cell cycle regulatory proteins is controlled by the UPS including inhibitors of the cyclin-dependent kinases p21 Cip1, p27 Kip1 and the tumor suppressor p53 (4). Treatment with b-AP15 increased their levels in a dose dependent manner.
For determination of cell cycle HCT-116 cells were treated with b-AP15 or DMSO Cells were harvested by trypsinisation, washed and fixed in 70% ice cold EtOH for 12 h. Cells were re-suspended in staining solution containing propidium iodide (50 μg/ml) and RNAse A (0.5 μg/ml) in PBS. Samples were run on BD FACScalibur. The percentage of cells in each phase of the cell cycle was determined using ModFit software.
b-AP15 inhibits degradation of ubiquitin-tagged YFP in a proteasome reporter cell line (FIG. 1a). Levels of ^UbG76V-YFP accumulation were determined by flow cytometry and immunoblotting; immunoblot of ubiquitin conjugation in HCT-116 cells treated with b-AP15 (1 μM) or bortezomib (100 nM) (FIG. 1b). Immunoblot of ubiquitin conjugates, caspase 3 activation PARP cleavage, p53. P21^Cip1 and p^Kip1 in HCT-116 cells following 24 h treatment with the indicated concentrations of b-AP15 (FIG. 1c). […]

[2] = test system: C1498 AML cells; experiment: C1498 AML model in C57BL/6J mice, histopathology of liver and ovary; assay type: in vivo; details: 5 mg/kg i.p. for 7 days
Protocol: Animal experiments were conducted in full accordance with Swedish governmental statutory regulations on animal welfare under permission from local ethical committees. Animals were housed at a max of five per cage and provided with sterile water and food ad libitum. All mice were monitored and weighed daily. For the head and neck carcinoma model a 100-μl cell suspension containing 1×10^6 FaDu cells was injected subcutaneously into the right rear flank of the animals. After injection, tumor growth was measured daily with calipers and the tumor volume calculated by the formula […]. When tumors had grown to a size of approximately 200 mm^3 (Day 0) mice were randomized to receive either vehicle (n=10) or b-AP15 5 mg/kg^−1 by subcutaneous injection s.c. (n=15) daily. […] Nineteen days after malignant cell injection all of the mice were killed and histopathological manifestations of liver, ovary (target organs for this model of tumor) were evaluated and compared between groups. […]
SCID mice bearing FaDu human tumor xenografts were randomized at tumor take (200 mm^3) and treated by daily subcutaneous injection with either vehicle (n=10) or 5 mg kg^−1 b-AP15 (n=15) for 10 days. […] Mice were treated with vehicle (n=6) or 5 mg kg^−1 b-AP15 (n=6) 4-5 times weekly for 3 weeks and monitored for tumor onset (log-rank, P=0.0136, hazard ratio=7.9). […]

C=CC(=O)N1C/C(=C\c2ccc([N+](=O)[O-])cc2)C(=O)/C(=C/c2ccc([N+](=O)[O-])cc2)C1 [b-AP15]
cell cycle effect [1]: cell cycle arrest in the G2/M phase boundary
AML infiltration in liver and ovary [2]: few infiltrated blasts and normal morphology

Reference: US9856511B2, “Protease deubiquitinating inhibitor screening” (priority 2011, dated 2018)
